Assay [1] addresses T1, EGFR (Homo sapiens, UniProt P00533, L858R/T790M).
T1 construct: endogenous in cells; host or cells: H1975
In words: Cell Degradation 1: EGFR degradation in H1975 cells, HTRF assay. To be noted: 16 h treatment, EGFR degradation by HTRF. The assay is classed as cell-based. The protocol:
After 16 h treatment, add 100 μl 1×lysis buffer to each well; seal the plate and incubate 1 hour at room temperature on a plate shaker; Once the cells are lysed, 16 μL of cell lysate are transferred to a PE 384-well HTRF detection plate; 4 μL of pre-mixed HTRF antibodies are added to each well; Cover the plate with a plate sealer, spin 1000 rpm for 1 min, Incubate overnight at room temperature; Read on BMG PheraStar with HTRF protocol (337 nm-665 nm-620 nm).
(§1) The IC50 (DC50) value of a compound can be obtained by fitting the following equation Y=Bottom+(TOP−Bottom)/(1+((IC50/X)^hillslope))
(§2) Wherein, X and Y are known values, and IC50, Hillslope, Top and Bottom are the parameters obtained by fitting with software. Y is the inhibition percentage (calculated from the equation), X is the concentration of the compound; IC50 is the concentration of the compound when the 50% inhibition is reached. The smaller the IC50 value is, the stronger the inhibitory ability of the compound is. Vice versa, the higher the IC50 value is, the weaker the ability the inhibitory ability of the compound is; Hillslope represents the slope of the fitted curve, generally around 1*; Bottom represents the minimum value of the curve obtained by data fitting, which is generally 0%±20%; Top represents the maximum value of the curve obtained by data fitting, which is generally 100%±20%. The experimental data were fitted by calculating and analyzing with Dotmatics data analysis software.

Assay [2] concerns the target T2, EGFR (Homo sapiens, UniProt P00533, DEL746-750).
T2 construct: endogenous in cells; host or cells: HCC827
In words: Cell Degradation 2: EGFR degradation in HCC827 cells, HTRF assay. It counts as cell-based. To be noted: 16 h treatment, EGFR degradation by HTRF. The method, then: After 16 h treatment, add 100 μl 1×lysis buffer to each well; seal the plate and incubate 1 hour at room temperature on a plate shaker; Once the cells are lysed, 16 μl diluted (2 μL to 14 μl 1× lysisi buffer) cell lysate are transferred to a PE 384-well HTRF detection plate; 4 μL of pre-mixed HTRF antibodies are added to each well; Cover the plate with a plate sealer, spin 1000 rpm for 1 min, Incubate overnight at room temperature; Read on BMG PheraStar with HTRF protocol (337 nm-665 nm-620 nm).
as §1, §2

SMILES strings stand for the structures. Some results are limits rather than exact numbers.

T2 sequence (P00533 with tags, fused parts or gaps DEL746-750): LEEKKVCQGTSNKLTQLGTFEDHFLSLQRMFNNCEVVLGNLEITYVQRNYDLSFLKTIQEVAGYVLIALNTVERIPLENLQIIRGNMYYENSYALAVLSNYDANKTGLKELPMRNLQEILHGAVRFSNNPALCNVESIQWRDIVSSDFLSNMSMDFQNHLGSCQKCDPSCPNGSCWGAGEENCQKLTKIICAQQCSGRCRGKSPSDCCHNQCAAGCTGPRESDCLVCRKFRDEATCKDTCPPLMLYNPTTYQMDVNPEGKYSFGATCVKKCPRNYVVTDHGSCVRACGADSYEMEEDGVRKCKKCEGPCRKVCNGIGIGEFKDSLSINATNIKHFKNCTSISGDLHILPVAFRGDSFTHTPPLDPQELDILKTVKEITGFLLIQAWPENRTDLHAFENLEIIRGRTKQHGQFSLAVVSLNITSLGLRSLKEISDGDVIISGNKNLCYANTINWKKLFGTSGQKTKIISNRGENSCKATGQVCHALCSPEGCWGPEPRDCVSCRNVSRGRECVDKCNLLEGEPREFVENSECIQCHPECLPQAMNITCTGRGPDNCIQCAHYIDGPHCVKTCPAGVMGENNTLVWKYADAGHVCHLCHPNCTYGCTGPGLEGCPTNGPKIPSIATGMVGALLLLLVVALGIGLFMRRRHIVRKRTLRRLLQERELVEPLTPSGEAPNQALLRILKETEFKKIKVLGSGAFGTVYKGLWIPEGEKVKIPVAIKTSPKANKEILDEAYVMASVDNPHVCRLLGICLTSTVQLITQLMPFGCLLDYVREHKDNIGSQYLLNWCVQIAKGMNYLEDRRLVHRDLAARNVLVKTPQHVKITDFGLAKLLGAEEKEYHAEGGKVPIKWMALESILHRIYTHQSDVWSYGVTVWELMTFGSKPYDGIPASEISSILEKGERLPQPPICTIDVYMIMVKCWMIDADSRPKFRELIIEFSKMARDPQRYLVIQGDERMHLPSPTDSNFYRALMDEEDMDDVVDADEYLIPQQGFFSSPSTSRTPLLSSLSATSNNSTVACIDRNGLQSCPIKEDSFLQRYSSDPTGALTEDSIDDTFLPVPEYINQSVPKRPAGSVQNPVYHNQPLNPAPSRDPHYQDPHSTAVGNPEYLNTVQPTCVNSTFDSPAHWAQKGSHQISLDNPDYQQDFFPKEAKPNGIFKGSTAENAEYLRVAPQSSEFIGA
T2 sequence (Q96SW2 whole entry partner): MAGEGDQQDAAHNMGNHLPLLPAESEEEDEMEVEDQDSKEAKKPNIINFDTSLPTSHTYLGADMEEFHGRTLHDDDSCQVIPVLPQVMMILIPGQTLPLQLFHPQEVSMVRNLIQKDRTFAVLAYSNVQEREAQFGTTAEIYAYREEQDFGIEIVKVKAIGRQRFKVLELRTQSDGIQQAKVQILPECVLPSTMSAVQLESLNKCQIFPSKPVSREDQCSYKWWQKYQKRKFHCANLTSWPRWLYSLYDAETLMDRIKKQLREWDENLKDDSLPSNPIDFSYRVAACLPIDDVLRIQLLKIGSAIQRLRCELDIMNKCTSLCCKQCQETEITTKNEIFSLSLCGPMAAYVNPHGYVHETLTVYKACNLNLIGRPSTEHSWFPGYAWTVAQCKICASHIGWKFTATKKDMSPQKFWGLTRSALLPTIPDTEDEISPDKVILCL
T1 sequence (P00533 25-1210 T790M/L858R): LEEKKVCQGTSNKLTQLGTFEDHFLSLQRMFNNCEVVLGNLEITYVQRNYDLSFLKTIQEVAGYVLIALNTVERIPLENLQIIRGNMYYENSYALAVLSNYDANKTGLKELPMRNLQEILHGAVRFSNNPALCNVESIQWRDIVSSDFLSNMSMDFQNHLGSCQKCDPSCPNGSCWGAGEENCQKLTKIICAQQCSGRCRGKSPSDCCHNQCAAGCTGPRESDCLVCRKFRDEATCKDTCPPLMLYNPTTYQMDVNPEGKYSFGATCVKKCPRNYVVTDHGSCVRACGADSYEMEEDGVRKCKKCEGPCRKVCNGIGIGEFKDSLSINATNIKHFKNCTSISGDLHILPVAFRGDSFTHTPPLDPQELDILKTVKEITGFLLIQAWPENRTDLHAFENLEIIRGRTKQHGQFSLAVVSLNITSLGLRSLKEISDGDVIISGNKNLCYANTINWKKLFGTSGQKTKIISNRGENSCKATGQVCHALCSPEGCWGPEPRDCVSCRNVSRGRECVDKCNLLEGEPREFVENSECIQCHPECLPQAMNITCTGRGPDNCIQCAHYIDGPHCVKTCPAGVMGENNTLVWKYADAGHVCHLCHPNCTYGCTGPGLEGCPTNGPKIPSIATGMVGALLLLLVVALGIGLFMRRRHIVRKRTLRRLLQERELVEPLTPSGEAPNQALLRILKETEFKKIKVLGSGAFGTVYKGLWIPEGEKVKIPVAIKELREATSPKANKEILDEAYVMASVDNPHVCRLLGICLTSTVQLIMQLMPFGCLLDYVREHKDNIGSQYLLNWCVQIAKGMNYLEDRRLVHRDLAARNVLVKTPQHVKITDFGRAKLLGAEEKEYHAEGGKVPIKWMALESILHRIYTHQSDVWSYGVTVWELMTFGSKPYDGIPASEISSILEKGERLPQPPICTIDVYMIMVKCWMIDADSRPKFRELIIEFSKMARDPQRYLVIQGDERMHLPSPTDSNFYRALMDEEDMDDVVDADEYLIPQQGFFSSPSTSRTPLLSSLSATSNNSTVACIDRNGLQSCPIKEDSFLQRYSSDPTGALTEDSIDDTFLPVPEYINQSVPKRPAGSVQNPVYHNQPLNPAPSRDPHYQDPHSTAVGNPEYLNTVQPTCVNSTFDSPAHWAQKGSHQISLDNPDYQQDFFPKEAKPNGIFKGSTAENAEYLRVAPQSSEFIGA

As to `CS(=O)(=O)N1CCc2cccc(Nc3nc(Nc4ccc(N5CCC(N6CCN(CCCC7CN(c8ccc9c(c8)C(=O)N(C8CCC(=O)NC8=O)C9=O)C7)CC6)CC5)c(F)c4)ncc3Cl)c21` (stereo not drawn) [Example 78, 5-(3-(3-(4-(1-(4-((5-chloro-4-((1-(methylsulfonyl)indolin-7-yl)amino)pyrimidin-2-yl)amino)-2-fluorophenyl)piperidin-4-yl)piperazin-1-yl)propyl)azetidin-1-yl)-2-(2,6-dioxopiperidin-3-yl)isoindoline-1,3-dione], the DC50 at EGFR [1] turned out to be 5.5 nM; on EGFR [2], 4.6 nM.
`CS(=O)(=O)N1CCc2cccc(Nc3nc(Nc4ccc(N5CCC(N6CCN(CCCC7CN(c8ccc9c(c8)C(=O)N(C8CCC(=O)NC8=O)C9=O)C7)CC6)CC5)c5c4OCC5)ncc3Cl)c21` (stereo not drawn) [Example 55, 5-(3-(3-(4-(1-(7-((5-chloro-4-((1-(methylsulfonyl)indolin-7-yl)amino)pyrimidin-2-yl)amino)-2,3-dihydrobenzofuran-4-yl)piperidin-4-yl)piperazin-1-yl)propyl)azetidin-1-yl)-2-(2,6-dioxopiperidin-3-yl)isoindoline-1,3-dione]: the figures for the DC50 on EGFR [1] and at EGFR [2] were 9.6 nM and 11.9 nM, respectively.
On to `CS(=O)(=O)N1CCc2cccc(Nc3nc(Nc4ccc(N5CCC(N6CCN(C(=O)CC7CCN(c8ccc(C9CCC(=O)NC9=O)cc8)CC7)CC6)CC5)c(F)c4)nc4[nH]ccc34)c21` (stereo not drawn) [Example 12, 3-(4-(4-(2-(4-(1-(2-fluoro-4-((4-((1-(methylsulfonyl)indolin-7-yl)amino)-7H-pyrrolo[2,3-d]pyrimidin-2-yl)amino)phenyl)piperidin-4-yl)piperazin-1-yl)-2-oxoethyl)piperidin-1-yl)phenyl)piperidine-2,6-dione], for which the DC50 at EGFR [1] turned out to be 12.4 nM; on EGFR [2], 33.5 nM.
Consider `CS(=O)(=O)N1CCc2cccc(Nc3nc(Nc4ccc(N5CCC(N6CCN(CCc7ccc(NC8CCC(=O)NC8=O)cc7)CC6)CC5)c(F)c4)nc4[nH]ccc34)c21` (stereo not drawn) [Example 66, 3-((4-(2-(4-(1-(2-fluoro-4-((4-((1-(methylsulfonyl)indolin-7-yl)amino)-7H-pyrrolo[2,3-d]pyrimidin-2-yl)amino)phenyl)piperidin-4-yl)piperazin-1-yl)ethyl)phenyl)amino)piperidine-2,6-dione], for which the DC50 was 7.1 nM on EGFR [1] and 18 nM on EGFR [2].
Consider `CS(=O)(=O)N1CCc2cccc(Nc3nc(Nc4ccc(N5CCC(N6CCN(C(=O)CCN7CCC(c8ccc(C9CCC(=O)NC9=O)cc8)CC7)CC6)CC5)c(F)c4)nc4[nH]ccc34)c21` (stereo not drawn) [Example 11, 3-(4-(1-(3-(4-(1-(2-fluoro-4-((4-((1-(methylsulfonyl)indolin-7-yl)amino)-7H-pyrrolo[2,3-d]pyrimidin-2-yl)amino)phenyl)piperidin-4-yl)piperazin-1-yl)-3-oxopropyl)piperidin-4-yl)phenyl)piperidine-2,6-dione], for which the 50% degradation concentration (DC50) was 23.7 nM on EGFR [1] and 123 nM on EGFR [2].
As to `CS(=O)(=O)N1CCc2cccc(Nc3nc(Nc4ccc(N5CCC(N6CCN(CCCOc7ccc(OC8CCC(=O)NC8=O)cc7)CC6)CC5)c(F)c4)nc4[nH]ccc34)c21` (stereo not drawn) [Example 4, 3-(4-(3-(4-(1-(2-fluoro-4-((4-((1-(methylsulfonyl)indolin-7-yl)amino)-7H-pyrrolo[2,3-d]pyrimidin-2-yl)amino)phenyl)piperidin-4-yl)piperazin-1-yl)propoxy)phenoxy)piperidine-2,6-dione], the DC50 at EGFR [1] is 15.5 nM; at EGFR [2], over 10000 nM.
For `COc1cc(N2CCC(N3CCN(CCc4ccc(C5CCC(=O)NC5=O)cc4)CC3)CC2)ccc1Nc1nc(Nc2cccc3c2N(S(C)(=O)=O)CC3)c2cc[nH]c2n1` (stereo not drawn) [Example 21, 3-(4-(2-(4-(1-(3-methoxy-4-((4-((1-(methylsulfonyl)indolin-7-yl)amino)-7H-pyrrolo[2,3-d]pyrimidin-2-yl)amino)phenyl)piperidin-4-yl)piperazin-1-yl)ethyl)phenyl)piperidine-2,6-dione] the same measures were 38.4 nM and 113 nM.
Take `CS(=O)(=O)N1CCc2cccc(Nc3nc(Nc4ccc(N5CCC(N6CCN(CC[C@H]7CCN(c8ccc(C9CCC(=O)NC9=O)cc8)C7)CC6)CC5)c(F)c4)nc4[nH]ccc34)c21` (stereo partly drawn) [Example 13, 3-(4-((S)-3-(2-(4-(1-(2-fluoro-4-((4-((1-(methylsulfonyl)indolin-7-yl)amino)-7H-pyrrolo[2,3-d]pyrimidin-2-yl)amino)phenyl)piperidin-4-yl)piperazin-1-yl)ethyl)pyrrolidin-1-yl)phenyl)piperidine-2,6-dione]: the DC50 on EGFR [1] was determined as 11.1 nM; on EGFR [2] it was 29.3 nM.
As to `COc1cc(CCN2CCN(C3CCN(c4ccc(Nc5nc(Nc6cccc7c6N(S(C)(=O)=O)CC7)c6cc[nH]c6n5)cc4F)CC3)CC2)ccc1C1CCC(=O)NC1=O` (stereo not drawn) [Example 2, 3-(4-(2-(4-(1-(2-fluoro-4-((4-((1-(methylsulfonyl)indolin-7-yl)amino)-7H-pyrrolo[2,3-d]pyrimidin-2-yl)amino)phenyl)piperidin-4-yl)piperazin-1-yl)ethyl)-2-methoxyphenyl)piperidine-2,6-dione], the DC50 on EGFR [1] came out at 36.9 nM; on EGFR [2] it was 33.4 nM.
`CS(=O)(=O)N1CCc2cccc(Nc3nc(Nc4ccc(N5CCC(N6CCN(C(=O)C7CN(c8ccc(C9CCC(=O)NC9=O)cc8)C7)CC6)CC5)c(F)c4)nc4[nH]ccc34)c21` (stereo not drawn) [Example 58, 3-(4-(3-(4-(1-(2-fluoro-4-((4-((1-(methylsulfonyl)indolin-7-yl)amino)-7H-pyrrolo[2,3-d]pyrimidin-2-yl)amino)phenyl)piperidin-4-yl)piperazine-1-carbonyl)azetidin-1-yl)phenyl)piperidine-2,6-dione]: the DC50 at EGFR [1] is 2.8 nM; at EGFR [2] it was 17.7 nM.
For `CN(CCCC1CN(c2ccc3c(c2)C(=O)N(C2CCC(=O)NC2=O)C3=O)C1)C1CCN(c2ccc(Nc3ncc(Cl)c(Nc4cccc5c4N(S(C)(=O)=O)CC5)n3)c3c2CCO3)CC1` (stereo not drawn) [Example 50, 5-(3-(3-((1-(7-((5-chloro-4-((1-(methylsulfonyl)indolin-7-yl)amino)pyrimidin-2-yl)amino)-2,3-dihydrobenzofuran-4-yl)piperidin-4-yl)(methyl)amino)propyl)azetidin-1-yl)-2-(2,6-dioxopiperidin-3-yl)isoindoline-1,3-dione] the same measures were 7.5 nM and 36.9 nM.
Turning to `CS(=O)(=O)N1CCc2cccc(Nc3nc(Nc4ccc(N5CCC(N6CCN(CC7CCN(c8ccc9c(c8)C(=O)N(C8CCC(=O)NC8=O)C9=O)CC7)CC6)CC5)c(F)c4)nc4[nH]ccc34)c21` (stereo not drawn) [Example 16, 2-(2,6-dioxopiperidin-3-yl)-5-(4-((4-(1-(2-fluoro-4-((4-((1-(methylsulfonyl)indolin-7-yl)amino)-7H-pyrrolo[2,3-d]pyrimidin-2-yl)amino)phenyl)piperidin-4-yl)piperazin-1-yl)methyl)piperidin-1-yl)isoindoline-1,3-dione], the DC50 came to 33.7 nM on EGFR [1] and 32.6 nM on EGFR [2].
For `COc1cc(N2CCC(N3CCN(CCC4CCN(c5ccc(C6CCC(=O)NC6=O)c(F)c5)CC4)CC3)CC2)c(C)cc1Nc1ncc(Br)c(Nc2cccc3c2N(S(C)(=O)=O)CC3)n1` (stereo not drawn) [Example 90, 3-(4-(4-(2-(4-(1-(4-((5-bromo-4-((1-(methylsulfonyl)indolin-7-yl)amino)pyrimidin-2-yl)amino)-5-methoxy-2-methylphenyl)piperidin-4-yl)piperazin-1-yl)ethyl)piperidin-1-yl)-2-fluorophenyl)piperidine-2,6-dione], the DC50 at EGFR [1] came out at 96.4 nM; on EGFR [2] it was 40.2 nM.
With `CS(=O)(=O)N1CCc2cccc(Nc3nc(Nc4ccc(N5CCC(N6CCN(CCOc7cccc(C8CCC(=O)NC8=O)c7)CC6)CC5)c(F)c4)nc4[nH]ccc34)c21` (stereo not drawn) [Example 5, 3-(3-(2-(4-(1-(2-fluoro-4-((4-((1-(methylsulfonyl)indolin-7-yl)amino)-7H-pyrrolo[2,3-d]pyrimidin-2-yl)amino)phenyl)piperidin-4-yl)piperazin-1-yl)ethoxy)phenyl)piperidine-2,6-dione], the DC50 at EGFR [1] stood at 9 nM; at EGFR [2], 62.6 nM.
As to `COc1cc(Nc2nc(Nc3cccc4c3N(S(C)(=O)=O)CC4)c3cc[nH]c3n2)ccc1N1CCC(N2CCN(C(=O)C3CN(c4ccc5c(c4)C(=O)N(C4CCC(=O)NC4=O)C5=O)C3)CC2)CC1` (stereo not drawn) [Example 73, 2-(2,6-dioxopiperidin-3-yl)-5-(3-(4-(1-(2-methoxy-4-((4-((1-(methylsulfonyl)indolin-7-yl)amino)-7H-pyrrolo[2,3-d]pyrimidin-2-yl)amino)phenyl)piperidin-4-yl)piperazine-1-carbonyl)azetidin-1-yl)isoindoline-1,3-dione], the DC50 is 3.4 nM at EGFR [1] and 1170 nM on EGFR [2].
